Our source for the IC50 values is US20260158177A1, “COMPOUNDS SPECIFIC TO GRANZYME B AND USES THEREOF” (CYTOSITE BIOPHARMA INC., priority 2021, published 2026).

What is called IC50 is the point on the concentration scale where inhibition reaches its midpoint.

The assay deals with T1, human granzyme B (Homo sapiens, UniProt P10144).
T1 construct: from tissue; host or cells: human lymphocytes
Kind of assay: Competitive binding assay of human granzyme B with Compound ^18F-21-Al radioligand. The note with it: competition with 20 nM Compound ^18F-21-Al, human lymphocyte GZB, 37° C., 90 minutes. On the procedure:
Purpose: To perform competitive binding assays with human granzyme B using Compound ^18F-21-Al to determine IC50 values of potential granzyme B ligands
Initial Plate Preparation (including total binding and non-specific binding): • 1. 78 μL of reaction buffer, as described above, is added to each well in a 96 well plate • 2. For wells used to examine total binding (defined as the binding of the radioligand in the absence of competitors), 2 μL of DMSO is added to give 1% final DMSO concentration for all wells • 3. For wells used to examine non-specific binding (defined as the binding of the radioligand in the presence of 10 μM 21), 2 μL of 1 mM Compound 21 is added to give a final concentration of 10 μM
• 1. Granzyme B (GZB, human lymphocyte) is diluted to 0.5 μg/mL using reaction buffer as described above • 2. 100 μL of 0.5 μg/mL diluted human GzB is added to each well, giving 50 ng per well and a final concentration of 0.25 μg/mL
• 1. DMSO or water is added to the respective compound vial to make 1 mM compound stock solution • 2. 1 mM compound stock solution is serially diluted by ½ log (3.16 fold) by adding 18.5 μL of compound stock to 40 μL of DMSO, mixing by pipetting up and down, and transferring 18.5 μL of the mixture to 40 μL of DMSO. This process is repeated to create 10 dilution points for test compounds. • 3. For wells used to examine ligand binding competition, 2 μL of each dilution is dispensed into the 96 well plates prepared as described above, giving a further dilution of 1/100.
• 1. 200 nM of Compound ^18F-21-Al (10× radioligand stock) is prepared in reaction buffer, aiming for approximately 2 million CPM per 20 μL of solution (input). • 2. 20 μL of radioligand stock is dispensed into each well to give a final concentration per well of 20 nM.
• 1. All 96 wells should have a final volume of 200 μL, and the assay plates are incubated at 37° C. for 90 minutes. • 2. All samples from the assay plates are transferred to MultiScreenHTS FB plates that have been presoaked in PBS buffer, pH 7.4, and filtered using a vacuum manifold. An additional 150 μL of PBS buffer is added to each well in the assay plates and combined to ensure transfer of any remaining samples • 3. MultiScreenHTS FB plates are washed 3× with 150 μL of PBS buffer. • 4. All filters are separated and transferred to individual tubes using Multiscreen punch tips and the Millipore multiple punch apparatus • 5. The sample set is analyzed using the Wizard 2480 automatic gamma-counter [Perkin Elmer] through a [^18F]-specific profile. Values are reported as decay-corrected counts per minute (CPM). • 6. Resulting CPM values are normalized and converted to % inhibition by the following equation:
[formula] • *the total bound fraction is typically less than 10% of the added radioligand under such assay conditions. • Resulting % inhibition values were plotted using the software GraphPad Prism 8.4.3 using the One site—Fit log IC50 equation to determine the IC50 value for each ligand.
[formula] • Y=% Inhibition • X=Log concentration of the cold competing ligand (M) • A=minimum Y (0%) • B=maximum Y (100%) • Log IC50=Log concentration of cold competing ligand (M) at half-way between minimum and maximum Y

T1 sequence (P10144 21-247): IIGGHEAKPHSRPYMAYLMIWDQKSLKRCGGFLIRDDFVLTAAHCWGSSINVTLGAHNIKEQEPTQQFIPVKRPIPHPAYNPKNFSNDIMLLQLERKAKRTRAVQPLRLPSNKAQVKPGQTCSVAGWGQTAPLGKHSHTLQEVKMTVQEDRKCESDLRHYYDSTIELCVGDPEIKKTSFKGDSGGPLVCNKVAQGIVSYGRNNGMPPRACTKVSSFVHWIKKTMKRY

For `CC[C@H](C)[C@H](NC(=O)COCCNC(=O)[C@@H](CCC(=O)O)NC(=O)[C@@H](CCC(=O)O)NC(=O)CN1CCN(C(=O)CN2CCN3CCN(CC2)CC(=O)[O][Al]([F])[O]C(=O)C3)CC1)C(=O)N[C@H]1CCc2cccc3c2N(C1=O)[C@H](C(=O)NC1CC(=O)OC1O)C3` (stereo partly drawn) [Compound 10-Al, 2,2′-(7-(2-(4-((4R,7R,16S,17S)-4,7-bis(2-carboxyethyl)-16-(((3S,6S)-6-((2-hydroxy-5-oxotetrahydrofuran-3-yl)carbamoyl)-4-oxo-1,2,3,4,6,7-hexahydroazepino[3,2,1-hi]indol-3-yl)carbamoyl)-17-methyl-2,5,8,14-tetraoxo-12-oxa-3,6,9,15-tetraazanonadecyl)piperazin-1-yl)-2-oxoethyl)-1,4,7-triazonane-1,4-diyl)diacetic acid, aluminum fluoride complex (1:1)], the IC50 is 3.6 nM.

Take `CC[C@H](C)[C@H](NC(=O)COCCOCCNC(=O)COCCOCCNC(=O)[C@@H](CCC(=O)O)NC(=O)CN1CCN(C(=O)CN2CCN3CCN(CC2)CC(=O)[O][Al]([F])[O]C(=O)C3)CC1)C(=O)N[C@H]1CCc2cccc3c2N(C1=O)[C@H](C(=O)NC1CC(=O)OC1O)C3` (stereo partly drawn) [Compound 11-Al, 2,2′-(7-(2-(4-((4R,25S,26S)-4-(2-carboxyethyl)-25-(((3S,6S)-6-((2-hydroxy-5-oxotetrahydrofuran-3-yl)carbamoyl)-4-oxo-1,2,3,4,6,7-hexahydroazepino[3,2,1-hi]indol-3-yl)carbamoyl)-26-methyl-2,5,14,23-tetraoxo-9,12,18,21-tetraoxa-3,6,15,24-tetraazaoctacosyl)piperazin-1-yl)-2-oxoethyl)-1,4,7-triazonane-1,4-diyl)diacetic acid, aluminum fluoride complex (1:1)]: the IC50 was determined as 2.4 nM.

As to `CC[C@H](C)[C@H](NC(=O)CCNC(=O)CCNC(=O)[C@@H](CCC(=O)O)NC(=O)CN1CCN(C(=O)CN2CCN3CCN(CC2)CC(=O)[O][Al]([F])[O]C(=O)C3)CC1)C(=O)N[C@H]1CCc2cccc3c2N(C1=O)[C@H](C(=O)NC1CC(=O)OC1O)C3` (stereo partly drawn) [Compound 12-Al, 2,2′-(7-(2-(4-((4R,15S,16S)-4-(2-carboxyethyl)-15-(((3S,6S)-6-((2-hydroxy-5-oxotetrahydrofuran-3-yl)carbamoyl)-4-oxo-1,2,3,4,6,7-hexahydroazepino[3,2,1-hi]indol-3-yl)carbamoyl)-16-methyl-2,5,9,13-tetraoxo-3,6,10,14-tetraazaoctadecyl)piperazin-1-yl)-2-oxoethyl)-1,4,7-triazonane-1,4-diyl)diacetic acid, aluminum fluoride complex (1:1)], the IC50 was found to be 4.2 nM.

Take `CC[C@H](C)[C@H](NC(=O)CCNC(=O)CCNC(=O)CN(CC(=O)O)C(=O)CN1CCN(C(=O)CN2CCN3CCN(CC2)CC(=O)[O][Al]([F])[O]C(=O)C3)CC1)C(=O)N[C@H]1CCc2cccc3c2N(C1=O)[C@H](C(=O)NC1CC(=O)OC1O)C3` (stereo partly drawn) [Compound 13-Al, 2,2′-(7-(2-(4-((15S,16S)-3-(carboxymethyl)-15-(((3S,6S)-6-((2-hydroxy-5-oxotetrahydrofuran-3-yl)carbamoyl)-4-oxo-1,2,3,4,6,7-hexahydroazepino[3,2,1-hi]indol-3-yl)carbamoyl)-16-methyl-2,5,9,13-tetraoxo-3,6,10,14-tetraazaoctadecyl)piperazin-1-yl)-2-oxoethyl)-1,4,7-triazonane-1,4-diyl)diacetic acid, aluminum fluoride complex (1:1)]: the IC50 is 4.2 nM.

Turning to `CC[C@H](C)[C@H](NC(=O)CC[C@@H](NC(=O)CN1CCN(C(=O)CN2CCN3CCN(CC2)CC(=O)[O][Al]([F])[O]C(=O)C3)CC1)C(=O)O)C(=O)N[C@H]1CCc2cccc3c2N(C1=O)[C@H](C(=O)NC1CC(=O)OC1O)C3` (stereo partly drawn) [Compound 14-Al, 2,2′-(7-(2-(4-(2-(((1R)-1-carboxy-4-(((2S,3S)-1-(((3S,6S)-6-((2-hydroxy-5-oxotetrahydrofuran-3-yl)carbamoyl)-4-oxo-1,2,3,4,6,7-hexahydroazepino[3,2,1-hi]indol-3-yl)amino)-3-methyl-1-oxopentan-2-yl)amino)-4-oxobutyl)amino)-2-oxoethyl)piperazin-1-yl)-2-oxoethyl)-1,4,7-triazonane-1,4-diyl)diacetic acid, aluminum fluoride complex (1:1)], the IC50 is 2.7 nM.

In the case of `CC[C@H](C)[C@H](NC(=O)CCNC(=O)CCNC(=O)[C@H](CC(C(=O)O)C(=O)O)NC(=O)CN1CCN(C(=O)CN2CCN3CCN(CC2)CC(=O)[O][Al]([F])[O]C(=O)C3)CC1)C(=O)N[C@H]1CCc2cccc3c2N(C1=O)[C@H](C(=O)NC1CC(=O)OC1O)C3` (stereo partly drawn) [Compound 15-Al, 2-((2S)-2-(2-(4-(2-(4,7-bis(carboxymethyl)-1,4,7-triazonan-1-yl)acetyl)piperazin-1-yl)acetamido)-3-((3-((3-(((2S,3S)-1-(((3S,6S)-6-((2-hydroxy-5-oxotetrahydrofuran-3-yl)carbamoyl)-4-oxo-1,2,3,4,6,7-hexahydroazepino[3,2,1-hi]indol-3-yl)amino)-3-methyl-1-oxopentan-2-yl)amino)-3-oxopropyl)amino)-3-oxopropyl)amino)-3-oxopropyl) malonic acid, aluminum fluoride complex (1:1)], the IC50 is 2.5 nM.

Consider `CC[C@H](C)[C@H](NC(=O)CCNC(=O)CCNC(=O)[C@@H](CCC(=O)O)NC(=O)[C@@H](CCC(=O)O)NC(=O)CN1CCN(C(=O)CN2CCN3CCN(CC2)CC(=O)[O][Al]([F])[O]C(=O)C3)CC1)C(=O)N[C@H]1CCc2cccc3c2N(C1=O)[C@H](C(=O)NC1CC(=O)OC1O)C3` (stereo partly drawn) [Compound 16-Al, 2,2′-(7-(2-(4-((4R,7R,18S,19S)-4,7-bis(2-carboxyethyl)-18-(((3S,6S)-6-((2-hydroxy-5-oxotetrahydrofuran-3-yl)carbamoyl)-4-oxo-1,2,3,4,6,7-hexahydroazepino[3,2,1-hi]indol-3-yl)carbamoyl)-19-methyl-2,5,8,12,16-pentaoxo-3,6,9,13,17-pentaazahenicosyl)piperazin-1-yl)-2-oxoethyl)-1,4,7-triazonane-1,4-diyl)diacetic acid, aluminum fluoride complex (1:1)], for which the IC50 came to 4.2 nM.

With `CC[C@H](C)[C@H](NC(=O)CC[C@H](NC(=O)CN1CCN(C(=O)CN2CCN3CCN(CC2)CC(=O)[O][Al]([F])[O]C(=O)C3)CC1)C(=O)O)C(=O)N[C@H]1CCc2cccc3c2N(C1=O)[C@H](C(=O)NC1CC(=O)OC1O)C3` (stereo partly drawn) [Compound 17-Al, 2,2′-(7-(2-(4-(2-(((1S)-1-carboxy-4-(((2S,3S)-1-(((3S,6S)-6-((2-hydroxy-5-oxotetrahydrofuran-3-yl)carbamoyl)-4-oxo-1,2,3,4,6,7-hexahydroazepino[3,2,1-hi]indol-3-yl)amino)-3-methyl-1-oxopentan-2-yl)amino)-4-oxobutyl)amino)-2-oxoethyl)piperazin-1-yl)-2-oxoethyl)-1,4,7-triazonane-1,4-diyl)diacetic acid, aluminum fluoride complex (1:1)], the IC50 worked out at 2.7 nM.
